Laboratory results: patent publication US20080004271A1, “Inhibitors of TNFalpha, PDE4 and B-RAF, compositions thereof and methods of use therewith” (priority 2006, published 2008)
pIC50: −log10 of the molar value.

Legend:
[1] = system: PDE4 enzyme purified from U937 human monocytic cells; assay: PDE4 (U937 cell-derived) enzyme assay; format: biochemical
Method: PDE4 enzyme is purified from U937 human monocytic cells by gel filtration chromatography as previously described (Muller et al. Bioorg. & Med Chem Lett 8:2669-2674 (1998)). Phosphodiesterase reactions are carried out in 50 mM Tris HCl pH 7.5, 5 mM MgCl2, 1 μM cAMP, 10 nM [^3H]-cAMP for 30 minutes at 30° C., terminated by boiling, treated with 1 mg/ml snake venom and separated using AG-1XS ion exchange resin (BioRad) as described (Id). Reactions consumed less than 15% of available substrate.

bovine PDE1 = assay: PDE1 enzyme assay (PDE selectivity); format: biochemical
Method: (§1) The phosphodiesterase selectivity of 2,5-Diamino-4-(4-chloro-phenyl)-thieno[2,3-d]pyrimidine-6-carboxylic acid amide was assessed by testing against bovine PDE1, human PDE2, PDE3 and PDE5 from human platelets and PDE6 from bovine retinal rod outer segments (MDS Pharma Services).

human PDE2 = target: T1, human PDE2 (Homo sapiens, UniProt O00408); assay: PDE2 enzyme assay (PDE selectivity); format: biochemical; conditions: read-out: PDE2 (% inhibit at 10 μM)
T1 construct: MDS Pharma Services
Method: as §1

[2] = target: T2, PDE3 from human platelets (Homo sapiens, UniProt Q14432); assay: PDE3 enzyme assay (PDE selectivity); format: biochemical; conditions: read-out: PDE3 (% inhibit at 10 μM)
T2 construct: PDE3 and PDE5 from human platelets; tissue MDS Pharma Services; host or cells: human platelets
Method: as §1

[3] = target: T3, PDE5 from human platelets (Homo sapiens, UniProt O76074); assay: PDE5 enzyme assay (PDE selectivity); format: biochemical; conditions: read-out: PDE5 (% inhibit at 10 μM)
T3 construct: PDE3 and PDE5 from human platelets; tissue MDS Pharma Services; host or cells: human platelets
Method: as §1

[4] = target: T4, PDE6 from bovine retinal rod outer segments (Bos taurus, UniProt P11541+P23439); assay: PDE6 enzyme assay (PDE selectivity); format: biochemical; conditions: read-out: PDE6 (% inhibit at 10 μM)
T4 construct: PDE6 from bovine retinal rod outer segments; tissue MDS Pharma Services; host or cells: bovine retinal rod outer segments
T4 sequence (P11541 2-856 limits assumed): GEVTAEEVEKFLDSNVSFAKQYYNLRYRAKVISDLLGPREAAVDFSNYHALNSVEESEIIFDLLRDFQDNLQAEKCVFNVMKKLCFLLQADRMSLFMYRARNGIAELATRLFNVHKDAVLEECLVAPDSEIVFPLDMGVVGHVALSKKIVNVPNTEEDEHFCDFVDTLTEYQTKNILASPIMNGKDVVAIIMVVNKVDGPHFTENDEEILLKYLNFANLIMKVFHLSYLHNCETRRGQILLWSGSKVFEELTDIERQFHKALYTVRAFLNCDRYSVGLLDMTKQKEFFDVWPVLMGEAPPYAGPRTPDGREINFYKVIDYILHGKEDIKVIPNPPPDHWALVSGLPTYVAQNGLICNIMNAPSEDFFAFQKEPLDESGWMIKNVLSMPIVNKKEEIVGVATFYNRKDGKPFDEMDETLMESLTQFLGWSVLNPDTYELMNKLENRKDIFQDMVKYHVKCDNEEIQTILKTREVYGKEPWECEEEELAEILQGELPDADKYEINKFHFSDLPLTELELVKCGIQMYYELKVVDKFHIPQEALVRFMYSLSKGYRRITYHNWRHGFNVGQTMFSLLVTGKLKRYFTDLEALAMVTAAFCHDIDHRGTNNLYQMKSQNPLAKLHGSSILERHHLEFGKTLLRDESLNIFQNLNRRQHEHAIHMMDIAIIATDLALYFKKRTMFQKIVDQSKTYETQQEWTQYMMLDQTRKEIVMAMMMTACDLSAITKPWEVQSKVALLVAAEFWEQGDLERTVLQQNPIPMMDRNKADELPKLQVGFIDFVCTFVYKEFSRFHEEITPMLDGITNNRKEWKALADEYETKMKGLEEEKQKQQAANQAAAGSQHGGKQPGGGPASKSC
T4 sequence (P23439 2-850 limits assumed): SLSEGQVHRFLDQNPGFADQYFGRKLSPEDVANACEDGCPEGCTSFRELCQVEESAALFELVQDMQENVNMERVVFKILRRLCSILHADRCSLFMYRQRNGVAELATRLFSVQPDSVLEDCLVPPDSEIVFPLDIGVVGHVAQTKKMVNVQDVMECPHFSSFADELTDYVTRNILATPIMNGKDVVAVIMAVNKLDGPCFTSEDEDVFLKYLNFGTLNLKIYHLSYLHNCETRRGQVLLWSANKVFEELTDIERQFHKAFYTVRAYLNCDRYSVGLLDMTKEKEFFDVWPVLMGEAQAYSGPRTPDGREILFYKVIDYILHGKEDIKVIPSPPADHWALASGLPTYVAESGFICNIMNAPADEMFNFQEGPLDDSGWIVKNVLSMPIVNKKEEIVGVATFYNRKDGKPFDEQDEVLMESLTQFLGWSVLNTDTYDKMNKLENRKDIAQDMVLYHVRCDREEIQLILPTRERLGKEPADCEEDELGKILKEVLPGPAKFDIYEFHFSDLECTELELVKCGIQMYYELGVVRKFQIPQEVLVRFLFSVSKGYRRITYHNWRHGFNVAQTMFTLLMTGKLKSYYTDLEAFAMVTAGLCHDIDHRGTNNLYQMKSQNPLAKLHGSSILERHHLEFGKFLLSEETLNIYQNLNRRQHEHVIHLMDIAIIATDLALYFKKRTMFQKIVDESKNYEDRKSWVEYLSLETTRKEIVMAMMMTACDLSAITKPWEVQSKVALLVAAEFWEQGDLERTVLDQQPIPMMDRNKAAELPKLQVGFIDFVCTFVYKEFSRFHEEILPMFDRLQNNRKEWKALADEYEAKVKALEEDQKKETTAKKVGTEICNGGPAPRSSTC
Method: as §1

T1 sequence (O00408 whole entry): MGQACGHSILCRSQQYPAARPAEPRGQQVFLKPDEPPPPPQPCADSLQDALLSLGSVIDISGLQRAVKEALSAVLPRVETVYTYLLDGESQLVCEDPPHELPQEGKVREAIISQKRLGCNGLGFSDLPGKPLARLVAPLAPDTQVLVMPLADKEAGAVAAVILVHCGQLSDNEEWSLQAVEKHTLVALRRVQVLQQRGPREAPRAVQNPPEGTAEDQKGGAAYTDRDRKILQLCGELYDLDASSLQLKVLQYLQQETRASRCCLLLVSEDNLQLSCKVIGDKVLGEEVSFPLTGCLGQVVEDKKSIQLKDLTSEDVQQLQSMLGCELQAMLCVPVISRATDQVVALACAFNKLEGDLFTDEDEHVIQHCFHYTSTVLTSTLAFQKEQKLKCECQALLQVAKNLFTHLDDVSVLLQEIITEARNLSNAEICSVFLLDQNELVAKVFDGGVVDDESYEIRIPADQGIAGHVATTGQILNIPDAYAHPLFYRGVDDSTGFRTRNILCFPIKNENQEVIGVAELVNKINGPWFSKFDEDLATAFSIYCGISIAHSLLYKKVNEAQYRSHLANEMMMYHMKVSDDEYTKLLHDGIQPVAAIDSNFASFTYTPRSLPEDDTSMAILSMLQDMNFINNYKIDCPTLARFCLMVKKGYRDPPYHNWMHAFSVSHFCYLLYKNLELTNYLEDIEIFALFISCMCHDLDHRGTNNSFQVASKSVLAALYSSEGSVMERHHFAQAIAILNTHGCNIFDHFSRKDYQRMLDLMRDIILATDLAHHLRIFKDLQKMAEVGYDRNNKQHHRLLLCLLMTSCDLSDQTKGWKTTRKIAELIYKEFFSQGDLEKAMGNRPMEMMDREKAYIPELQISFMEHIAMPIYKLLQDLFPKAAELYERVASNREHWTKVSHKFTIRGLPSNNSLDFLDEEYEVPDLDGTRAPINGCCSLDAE
T2 sequence (Q14432 whole entry): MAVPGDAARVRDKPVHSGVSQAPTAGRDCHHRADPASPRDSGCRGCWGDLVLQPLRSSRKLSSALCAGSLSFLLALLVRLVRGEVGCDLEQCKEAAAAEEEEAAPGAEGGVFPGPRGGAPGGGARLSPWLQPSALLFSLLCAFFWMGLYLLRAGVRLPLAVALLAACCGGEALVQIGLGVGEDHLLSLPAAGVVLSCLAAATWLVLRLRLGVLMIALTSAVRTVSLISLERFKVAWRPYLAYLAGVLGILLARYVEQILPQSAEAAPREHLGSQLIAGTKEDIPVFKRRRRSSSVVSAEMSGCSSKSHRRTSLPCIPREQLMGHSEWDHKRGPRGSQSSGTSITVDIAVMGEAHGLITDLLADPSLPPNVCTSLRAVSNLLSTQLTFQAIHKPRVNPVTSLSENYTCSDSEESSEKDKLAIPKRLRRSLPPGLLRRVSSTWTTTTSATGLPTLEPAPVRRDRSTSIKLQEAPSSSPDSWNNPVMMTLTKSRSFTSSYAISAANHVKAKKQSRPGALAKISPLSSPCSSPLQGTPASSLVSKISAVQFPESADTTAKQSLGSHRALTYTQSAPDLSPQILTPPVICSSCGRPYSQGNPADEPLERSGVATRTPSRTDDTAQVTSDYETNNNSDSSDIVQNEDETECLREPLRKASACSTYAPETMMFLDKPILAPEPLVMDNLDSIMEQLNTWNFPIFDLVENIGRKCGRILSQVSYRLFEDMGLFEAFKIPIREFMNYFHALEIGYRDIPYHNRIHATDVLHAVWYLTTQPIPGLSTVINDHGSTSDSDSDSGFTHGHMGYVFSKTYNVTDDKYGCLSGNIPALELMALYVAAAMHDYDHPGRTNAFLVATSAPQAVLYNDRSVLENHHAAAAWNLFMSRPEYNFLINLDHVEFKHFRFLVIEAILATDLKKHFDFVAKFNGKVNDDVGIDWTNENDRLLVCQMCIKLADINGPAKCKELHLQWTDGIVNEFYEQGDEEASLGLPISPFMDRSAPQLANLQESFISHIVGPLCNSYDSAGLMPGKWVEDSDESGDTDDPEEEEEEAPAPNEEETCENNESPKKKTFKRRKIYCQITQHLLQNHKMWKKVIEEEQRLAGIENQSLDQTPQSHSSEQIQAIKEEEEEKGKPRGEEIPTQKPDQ

## NC(=O)c1sc2ncnc(-c3cccc(NC(=O)Nc4ccncc4)c3)c2c1N [Example 5.2.166, 5-amino-4-{3-[(4-pyridylamino)carbonylamino]phenyl}-thiopheno[2,3-d]pyrimidine-6-carboxamide]
other
  melting point: 177 to 179 °C

## NC(=O)c1sc2nc(N)nc(-c3ccc(Cl)cc3)c2c1N [2,5-Diamino-4-(4-chloro-phenyl)-thieno[2,3-d]pyrimidine-6-carboxylic acid amide]
[1]
  pIC50: 6.92
Bovine PDE1
  PDE1 (% inhibit at 10 μM): 18%
Human PDE2
  inhibition at 10 µM: 8%
[2]
  inhibition at 10 µM: 14%
[3]
  inhibition at 10 µM: -2%
[4]
  inhibition at 10 µM: 8%

## NC(=O)c1sc2ncnc(-c3cccc(NC(=O)Nc4ccccc4C(F)(F)F)c3)c2c1N [Example 5.2.170, 5-amino-4-[3-({[2-(trifluoromethyl)phenyl]amino}-carbonylamino)phenyl]thiopheno[2,3-d]pyrimidine-6-carboxamide]
other
  melting point: 172 to 175 °C

## NC(=O)c1sc2ncnc(-c3cc4c(c(OCc5ccccc5)c3)CCO4)c2c1N [Example 5.2.140, 5-amino-4-(4-(benzyloxy)-2,3-dihydrobenzofuran-6-yl)thieno[2,3-d]pyrimidine-6-carboxamide]
other
  melting point: 239 °C

## NC(=O)c1sc2ncnc(-c3cccc(NC(=O)Nc4cccc(C(F)(F)F)c4)c3)c2c1N [Example 5.2.169, 5-amino-4-[3-({[3-(trifluoromethyl)phenyl]amino}-carbonylamino)phenyl]thiopheno[2,3-d]pyrimidine-6-carboxamide]
other
  melting point: 201 to 203 °C

## NC(=O)c1sc2ncnc(-c3cc(O)c4c(c3)OCC4)c2c1N [Example 5.2.141, 5-amino-4-(4-hydroxy-2,3-dihydrobenzofuran-6-yl)thieno[2,3-d]pyrimidine-6-carboxamide]
other
  melting point: 285 °C
